According to publication PMC4697807, “Novel Zn^2+ Modulated GPR39 Receptor Agonists Do Not Drive Acute Insulin Secretion in Rodents” (PLoS ONE, 2015):
Where two headings read alike, the source gives them in different places.

Key:
rGPR39 = biological target: T1, rGPR39 (Rattus norvegicus, UniProt A0A8J8Y1V6); experiment: DMR label-free assay, HEK293s cells transfected with rat GPR39; assay type: cell-based
T1 sequence (A0A8J8Y1V6 1-456): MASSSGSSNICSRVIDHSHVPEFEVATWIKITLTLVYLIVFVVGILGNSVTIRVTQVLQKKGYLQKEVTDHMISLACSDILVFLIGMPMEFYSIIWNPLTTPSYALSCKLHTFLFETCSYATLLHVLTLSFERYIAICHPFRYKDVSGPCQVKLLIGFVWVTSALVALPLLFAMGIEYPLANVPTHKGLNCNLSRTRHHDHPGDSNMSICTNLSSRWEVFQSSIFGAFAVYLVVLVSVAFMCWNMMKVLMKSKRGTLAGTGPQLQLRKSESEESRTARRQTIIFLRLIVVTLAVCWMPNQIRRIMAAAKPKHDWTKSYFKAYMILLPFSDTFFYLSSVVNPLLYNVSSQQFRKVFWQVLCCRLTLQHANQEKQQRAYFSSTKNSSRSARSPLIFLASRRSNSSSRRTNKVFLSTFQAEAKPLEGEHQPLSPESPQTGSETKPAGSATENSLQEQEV
Text: Full length human (AF034633), rat (DM091294) and mouse (BC085285) GPR39 (GeneArt–Life Technologies, Carlsbad, CA) were subcloned into the pIRESneo3 vector (Clontech, Mountain View, CA). The resulting expression vectors hGPR39-, rGPR39- and mGPR39-pIRESneo3 were transfected into HEK293s cells (ATCC CRL-1573) using Lipofectamine 2000 (Life Technologies). Individual clones were isolated using flow cytometry with a FACSVantage SE DIVA (Becton Dickinson, Franklin Lakes, NJ) and clones were chosen based on responses to Zn^2+ measured in a cAMP assay (see below). […] HEK293s-derived cell lines were cultured at 37°C, 10% CO2 and 95% humidity in DMEM supplemented with 10% FBS and 600 μg/ml Geneticin (Life Technologies). The mouse pancreas epithelial cell line NIT-1 (ATCC CRL-2055) with endogenous expression of GPR39 was cultured at 37°C, 5% CO2, and 95% humidity in Ham´s F12 (Life Technologies) supplemented with 10% FBS.
DMR assays were performed using an Epic instrument (Corning Inc., Corning, NY). 12,000 cells per well were cultured for 24 h in 384-well fibronectin-coated Epic biosensor plates (Corning). On the day of experiment, culture medium was removed and replaced with 30 μl buffer A (HBSS, HEPES 20 mM pH7.4, 1% DMSO, 0.01% BSA) using an EL406 (Bio-Tek). Plates were incubated at 26 °C for 1 h inside the Epic to allow for temperature equilibration. A baseline was read for 2 min, and then 15 μl compounds in buffer A were added using a CyBi-Well vario (CyBio) and DMR was detected during 45 min.
Concentration response data were fitted with a four parameter logistic fit using Eq 1, y=A+((B−A)/1+((C/x)^D))) (1) where A is no activation, B is full activation, C is the EC50 and D is the Hill slope.

C57BL/6J mice = experiment: Intraperitoneal glucose tolerance test (IPGTT) in C57BL/6J mice; assay type: in vivo, mouse; details: 30 and 100 mg/kg IP, 30 min before 1.5 g/kg glucose IP; fasted lean mice
Text: Six-week-old male C57BL/6J mice were purchased from CLEA (Tokyo, Japan). Fourteen-week-old and fifteen-week-old male DIO mice were purchase from Charles River Japan (Yokohama, Japan). They were used after at least one week acclimation period. C57BL/6J mice were allowed free access to a normal diet (CRF-1, Oriental Yeast, Tokyo, Japan). DIO mice were allowed free access to a high-fat diet with 60 kcal% fat (D12492, Research Diets, New Brunswick, NJ). They were kept under standard 12-h light/dark cycle. Animal experiments were approved by the Institutional Animal Care and Use Committee of Mitsubishi Tanabe Pharma Corporation.
Seven-week-old and eight-week-old C57BL/6J mice were used. Mice were fasted overnight and were randomly grouped. Five ml/kg of a solution of vehicle (10% dimethylformamide (DMF)/18% Cremophore) or compounds were intraperitoneally (IP) administered. Thirty min later, 1.5 g/20 ml/kg of glucose solution was IP administered. […] Plasma glucose was measured using Glucose CII Test Wako Kit (Wako Pure Chemical Industries, Osaka, Japan). Plasma insulin was measured using Ultra Sensitive Mouse Insulin ELISA Kit (Morinaga, Yokohama, Japan).
Statistical analysis was performed using SAS9.1.3 with student’s t-test or Dunnett’s test. All data were expressed as mean ± standard error of mean (SEM). […]

[1] = absence (w/o) of Zn^2+, read-out: EC50
[2] = presence of 5 μM Zn^2+, read-out: EC50
[3] = presence of 5 μM Zn^2+, read-out: pEC50 ± SD (converted)

| SMILES | EC50 (rGPR39; [1]) [nM] | EC50 (rGPR39; absence (w/o) of Zn^2+, read-out: pEC50 ± SD (converted)) [nM] | EC50 (rGPR39; [2]) [nM] | EC50 (rGPR39; [3]) [nM] | insulinotropic effect (C57BL/6J mice) |
| --- | --- | --- | --- | --- | --- |
| N#Cc1ccc(OCCn2ccnc2)c(OCCn2ccnc2)c1 [AZ1395, 3,4-bis-(2-imidazol-1-ylethoxy)-benzonitrile] | 5100 | 5130 | 33 | 33.1 |  |
| Cc1nc2c(C(=O)O)cnn2c(O)c1Cc1ccc(Cl)cc1 [AZ4237, 6-[(4-chlorophenyl)methyl]-7-hydroxy-5-methyl-pyrazolo[1,5-a]pyrimidine-3-carboxylic acid] | > 33000 |  | 150 | 148 | did not elicit insulinotropic effects in vivo |
| Cc1nc(-c2nc3c(c(=O)[nH]2)CN(C(=O)c2cccc(Cl)c2F)CC3)cs1 [AZ7914, 6-(3-chloro-2-fluoro-benzoyl)-2-(2-methylthiazol-4-yl)-3,5,7,8-tetrahydropyrido-[4,3-d]pyrimidin-4-one] | 7400 |  | 150 | 148 | did not elicit insulinotropic effects in vivo |
